Row | Structure (SMILES) | melting point [°C]
1 | CCc1cc(Oc2ccc(S(C)(=O)=O)nc2)cc2cc(C3=NCC(CC(=O)NC)S3)[nH]c12 (centres unmarked) [Example 62, 2-[2-(7-Ethyl-5-{[6-(methylsulfonyl)pyridin-3-yl]oxy}-1H-indol-2-yl)-4,5-dihydro-1,3-thiazol-5-yl]-N-methylacetamide] | 189 to 190
2 | CS(=O)(=O)c1ccc(Oc2cc(OC3CCOCC3)c3[nH]c(C4=NCC(CC(N)=O)S4)cc3c2)cn1 (centres unmarked) [Example 31, 2-{2-[5-{[6-(Methylsulfonyl)pyridin-3-yl]oxy}-7-(tetrahydro-2H-pyran-4-yloxy)-1H-indol-2-yl]-4,5-dihydro-1,3-thiazol-5-yl}acetamide] | 136 to 138
3 | CS(=O)(=O)c1ccc(Oc2cc(OC3CCOCC3)c3[nH]c(C4=NCC(CC(=O)N5CC(O)C5)S4)cc3c2)nc1 (centres unmarked) [Example 18, 1-({2-[5-{[5-(Methylsulfonyl)pyridin-2-yl]oxy}-7-(tetrahydro-2H-pyran-4-yloxy)-1H-indol-2-yl]-4,5-dihydro-1,3-thiazol-5-yl}acetyl)azetidin-3-ol] | 180 to 181
4 | CS(=O)(=O)c1ccc(Oc2cc(OC3CCOCC3)c3[nH]c(C4=NCC(CC(N)=O)S4)cc3c2)nc1 (centres unmarked) [Example 16, 2-{2-[5-{[5-(Methylsulfonyl)pyridin-2-yl]oxy}-7-(tetrahydro-2H-pyran-4-yloxy)-1H-indol-2-yl]-4,5-dihydro-1,3-thiazol-5-yl}acetamide] | 188 to 190
5 | CS(=O)(=O)c1ccc(Oc2cc(OC3CCOCC3)c3[nH]c(C4=NCC(CCO)S4)cc3c2)nc1 (centres unmarked) [Example 13, 2-{2-[5-{[5-(Methylsulfonyl)pyridin-2-yl]oxy}-7-(tetrahydro-2H-pyran-4-yloxy)-1H-indol-2-yl]-4,5-dihydro-1,3-thiazol-5-yl}ethanol] | 165 to 166
6 | CC1(CNC(=O)CC2CN=C(c3cc4cc(Oc5ccc(S(C)(=O)=O)nc5)cc(OC5CCOCC5)c4[nH]3)S2)COC1 (centres unmarked) [Example 40, N-[(3-Methyloxetan-3-yl)methyl]-2-{2-[5-{[6-(methylsulfonyl)pyridin-3-yl]oxy}-7-(tetrahydro-2H-pyran-4-yloxy)-1H-indol-2-yl]-4,5-dihydro-1,3-thiazol-5-yl}acetamide] | 189 to 190
7 | CS(=O)(=O)c1ccc(Oc2ccc3[nH]c(C4=NCC(CC(=O)N5CCOCC5)S4)cc3c2)cn1 (centres unmarked) [Example 68, 5-{[6-(Methylsulfonyl)pyridin-3-yl]oxy}-2-[5-(2-morpholin-4-yl-2-oxoethyl)-4,5-dihydro-1,3-thiazol-2-yl]-1H-indole] | 168 to 169
8 | Cc1cc(Oc2ccc(S(C)(=O)=O)nc2)cc2cc(C3=NCC(CC(=O)NCC(C)(C)O)S3)[nH]c12 (centres unmarked) [Example 75, N-(2-Hydroxy-2-methylpropyl)-2-[2-(7-methyl-5-{[6-(methylsulfonyl)pyridin-3-yl]oxy}-1H-indol-2-yl)-4,5-dihydro-1,3-thiazol-5-yl]acetamide] | 184 to 186
9 | CS(=O)(=O)Cc1ccc(Oc2cc(OC3CCOCC3)c3[nH]c(C4=NCC(CC(N)=O)S4)cc3c2)cn1 (centres unmarked) [Example 26, 2-{2-[5-({6-[(Methylsulfonyl)methyl]pyridin-3-yl}oxy)-7-(tetrahydro-2H-pyran-4-yloxy)-1H-indol-2-yl]-4,5-dihydro-1,3-thiazol-5-yl}acetamide] | 164 to 167
10 | CS(=O)(=O)c1ccc(Oc2cc(OC3CCOCC3)c3[nH]c(C4=NCC(CC(N)=O)S4)cc3c2)cc1 (centres unmarked) [Example 5, 2-(2-{5-[4-(Methylsulfonyl)phenoxy]-7-(tetrahydro-2H-pyran-4-yloxy)-1H-indol-2-yl}-4,5-dihydro-1,3-thiazol-5-yl)acetamide] | 176 to 177
11 | CS(=O)(=O)c1ccc(Oc2cc(OC3CCOCC3)c3[nH]c(C4=NCC(CC(=O)NCCO)S4)cc3c2)cn1 (centres unmarked) [Example 44, N-(2-Hydroxyethyl)-2-{2-[5-{[6-(methylsulfonyl)pyridin-3-yl]oxy}-7-(tetrahydro-2H-pyran-4-yloxy)-1H-indol-2-yl]-4,5-dihydro-1,3-thiazol-5-yl}acetamide] | 157 to 158
12 | Cc1cc(Oc2ccc(S(C)(=O)=O)nc2)cc2cc(C3=NCC(CC(=O)NC[C@H](C)O)S3)[nH]c12 (stereo partly drawn) [Example 76, N-[(2S)-2-Hydroxypropyl]-2-[2-(7-methyl-5-{[6-(methylsulfonyl)pyridin-3-yl]oxy}-1H-indol-2-yl)-4,5-dihydro-1,3-thiazol-5-yl]acetamide] | 170 to 171
13 | CC(C)(O)CNC(=O)CC1CN=C(c2cc3cc(Oc4ccc(S(C)(=O)=O)nc4)cc(OC4CCOCC4)c3[nH]2)S1 (centres unmarked) [Example 39, N-(2-Hydroxy-2-methylpropyl)-2-{2-[5-{[6-(methylsulfonyl)pyridin-3-yl]oxy}-7-(tetrahydro-2H-pyran-4-yloxy)-1H-indol-2-yl]-4,5-dihydro-1,3-thiazol-5-yl}acetamide] | 195 to 196
14 | CCNC(=O)CC1CN=C(c2cc3cc(Oc4ccc(S(C)(=O)=O)nc4)cc(CC)c3[nH]2)S1 (centres unmarked) [Example 63, N-Ethyl-2-[2-(7-ethyl-5-{[6-(methylsulfonyl)pyridin-3-yl]oxy}-1H-indol-2-yl)-4,5-dihydro-1,3-thiazol-5-yl]acetamide] | 227 to 229
15 | CS(=O)(=O)c1ccc(Oc2ccc3[nH]c(C4=NCC(CC(=O)O)S4)cc3c2)cn1 (centres unmarked) [Example 52, [2-(5-{[6-(Methylsulfonyl)pyridin-3-yl]oxy}-1H-indol-2-yl)-4,5-dihydro-1,3-thiazol-5-yl]acetic acid] | 205 to 208
16 | CNC(=O)CC1CN=C(c2cc3cc(Oc4ccc(S(C)(=O)=O)nc4)ccc3[nH]2)S1 (centres unmarked) [Example 79] | 172 to 173
17 | CNC(=O)CC1CN=C(c2cc3cc(Oc4ccc(S(C)(=O)=O)nc4)cc(OC4CCOCC4)c3[nH]2)S1 (centres unmarked) [Example 34, N-methyl-2-{2-[5-{[6-(Methylsulfonyl)pyridin-3-yl]oxy}-7-(tetrahydro-2H-pyran-4-yloxy)-1H-indol-2-yl]-4,5-dihydro-1,3-thiazol-5-yl}acetamide] | 143 to 144
18 | Cc1cc(Oc2ccc(S(C)(=O)=O)nc2)cc2cc(C3=NCC(CC(=O)NC[C@@H](C)O)S3)[nH]c12 (stereo partly drawn) [Example 77, N-[(2R)-2-Hydroxypropyl]-2-[2-(7-methyl-5-{[6-(methylsulfonyl)pyridin-3-yl]oxy}-1H-indol-2-yl)-4,5-dihydro-1,3-thiazol-5-yl]acetamide] | 168 to 169
19 | CCc1cc(Oc2ccc(S(C)(=O)=O)nc2)cc2cc(C3=NCC(CC(=O)O)S3)[nH]c12 (centres unmarked) [Example 60, [2-(7-Ethyl-5-{[6-(methylsulfonyl)pyridin-3-yl]oxy}-1H-indol-2-yl)-4,5-dihydro-1,3-thiazol-5-yl]acetic acid] | 230 to 232
20 | CNC(=O)CC1CN=C(c2cc3cc(Oc4ccc(CS(C)(=O)=O)nc4)cc(OC4CCOCC4)c3[nH]2)S1 (centres unmarked) [Example 27, N-Methyl-2-{2-[5-({6-[(methylsulfonyl)methyl]pyridin-3-yl}oxy)-7-(tetrahydro-2H-pyran-4-yloxy)-1H-indol-2-yl]-4,5-dihydro-1,3-thiazol-5-yl}acetamide] | 157 to 158
21 | Cc1cc(Oc2ccc(S(C)(=O)=O)nc2)cc2cc(C3=NCC(CC(=O)O)S3)[nH]c12 (centres unmarked) [Example 71, [2-(7-Methyl-5-{[6-(methylsulfonyl)pyridin-3-yl]oxy}-1H-indol-2-yl)-4,5-dihydro-1,3-thiazol-5-yl]acetic acid] | 248 to 249
22 | COCCNC(=O)CC1CN=C(c2cc3cc(Oc4ccc(S(C)(=O)=O)nc4)ccc3[nH]2)S1 (centres unmarked) [Example 66, N-(2-Methoxyethyl)-2-[2-(5-{[6-(methylsulfonyl)pyridin-3-yl]oxy}-1H-indol-2-yl)-4,5-dihydro-1,3-thiazol-5-yl]acetamide] | 174 to 175
23 | CN(C)C(=O)CC1CN=C(c2cc3cc(Oc4ccc(S(C)(=O)=O)nc4)ccc3[nH]2)S1 (centres unmarked) [Example 64, N,N-Dimethyl-2-[2-(5-{[6-(methylsulfonyl)pyridin-3-yl]oxy}-1H-indol-2-yl)-4,5-dihydro-1,3-thiazol-5-yl]acetamide] | 190 to 191

— patent US8557805B2, “Fused ring compound and use thereof” (Takeda Pharmaceutical Company Limited, priority 2008, dated 2013)
